Results from patent publication US20070202116A1, “Treatment of micro-organism infection” (priority 2001, published 2007).
Like-named read-outs stand apart in the source and are kept apart here.

What was measured:
[1] = tested on: MRSA strains (VISA and parent EMRSA-15); experiment: MIC of vancomycin in the presence of Aurograb (Table 3); format: cell-based, S. aureus; settings: Staphylococcus aureus
Procedure: (§1) Strains of MRSA were grown overnight in nutrient broth and diluted to give an inoculum of 1×10^3 cells per mL. […] Cultures were incubated for a further 2 days. The minimum growth-inhibitory concentration (MIC) is defined as the […] concentration of antibiotic at which no bacterial growth occurs and is determined by spectrophotometric evaluation of the lack of turbidity (growth) in culture. MICs were determined in the presence of exogenous Aurograb or in the presence of Aurograb formulation buffer (negative control).

EMRSA strains = experiment: MIC of vancomycin or flucloxacillin with and without Aurograb (Table 3a); format: cell-based, S. aureus; settings: Staphylococcus aureus
Procedure: as §1
The experiments were also performed using flucloxacillin instead of vancomycin to investigate how the efficacy of penicillin-type […] was affected by Aurograb.

## CN[C@H](CC(C)C)C(=O)N[C@H]1C(=O)N[C@@H](CC(N)=O)C(=O)N[C@H]2C(=O)N[C@H]3C(=O)N[C@H](C(=O)N[C@H](C(=O)O)c4cc(O)cc(O)c4-c4cc3ccc4O)[C@H](O)c3ccc(c(Cl)c3)Oc3cc2cc(c3O[C@@H]2O[C@H](CO)[C@@H](O)[C@H](O)[C@H]2O[C@H]2C[C@](C)(N)[C@H](O)[C@H](C)O2)Oc2ccc(cc2Cl)[C@H]1O [Vancomycin, vancomycin]
[1]; read-out: MIC to Vancomycin in the presence of Aurograb, Parent EMRSA-15, Aurograb 0 μg/ml
  MIC: 1 µg/mL
[1]; read-out: MIC to Vancomycin in the presence of Aurograb, Parent EMRSA-15, Aurograb 80 μg/ml
  MIC: 0.25 µg/mL
[1]; read-out: MIC to Vancomycin in the presence of Aurograb, Parent EMRSA-15, Aurograb 125 μg/ml
  MIC: < 0.125 µg/mL
[1]; read-out: MIC to Vancomycin in the presence of Aurograb, VISA EMRSA-1, Aurograb 0 μg/ml
  MIC: 8 µg/mL
[1]; read-out: MIC to Vancomycin in the presence of Aurograb, VISA EMRSA-1, Aurograb 60 μg/ml
  MIC: 4 µg/mL
[1]; read-out: MIC to Vancomycin in the presence of Aurograb, VISA EMRSA-1, Aurograb 80 μg/ml
  MIC: 2 µg/mL
[1]; read-out: MIC to Vancomycin in the presence of Aurograb, VISA EMRSA-1, Aurograb 125 μg/ml
  MIC: < 0.125 µg/mL
[1]; read-out: MIC to Vancomycin in the presence of Aurograb, VISA EMRSA-2, Aurograb 0 μg/ml
  MIC: 4 µg/mL
[1]; read-out: MIC to Vancomycin in the presence of Aurograb, VISA EMRSA-2, Aurograb 60 μg/ml
  MIC: 0.5 µg/mL
[1]; read-out: MIC to Vancomycin in the presence of Aurograb, VISA EMRSA-2, Aurograb 80 μg/ml
  MIC: 1 µg/mL
[1]; read-out: MIC to Vancomycin in the presence of Aurograb, VISA EMRSA-2, Aurograb 125 μg/ml
  MIC: < 0.125 µg/mL
[1]; read-out: MIC to Vancomycin in the presence of Aurograb, VISA EMRSA-8, Aurograb 0 μg/ml
  MIC: 8 µg/mL
[1]; read-out: MIC to Vancomycin in the presence of Aurograb, VISA EMRSA-8, Aurograb 60 μg/ml
  MIC: 2 µg/mL
[1]; read-out: MIC to Vancomycin in the presence of Aurograb, VISA EMRSA-8, Aurograb 80 μg/ml
  MIC: 1 µg/mL
[1]; read-out: MIC to Vancomycin in the presence of Aurograb, VISA EMRSA-8, Aurograb 125 μg/ml
  MIC: < 0.125 µg/mL
[1]; read-out: MIC to Vancomycin in the presence of Aurograb, VISA EMRSA-11, Aurograb 0 μg/ml
  MIC: 4 µg/mL
[1]; read-out: MIC to Vancomycin in the presence of Aurograb, VISA EMRSA-11, Aurograb 60 μg/ml
  MIC: 4 µg/mL
[1]; read-out: MIC to Vancomycin in the presence of Aurograb, VISA EMRSA-11, Aurograb 80 μg/ml
  MIC: 1 µg/mL
[1]; read-out: MIC to Vancomycin in the presence of Aurograb, VISA EMRSA-11, Aurograb 125 μg/ml
  MIC: < 0.125 µg/mL
[1]; read-out: MIC to Vancomycin in the presence of Aurograb, VISA EMRSA-12, Aurograb 0 μg/ml
  MIC: 8 µg/mL
[1]; read-out: MIC to Vancomycin in the presence of Aurograb, VISA EMRSA-12, Aurograb 60 μg/ml
  MIC: 4 µg/mL
[1]; read-out: MIC to Vancomycin in the presence of Aurograb, VISA EMRSA-12, Aurograb 80 μg/ml
  MIC: 2 µg/mL
[1]; read-out: MIC to Vancomycin in the presence of Aurograb, VISA EMRSA-12, Aurograb 125 μg/ml
  MIC: < 0.125 µg/mL
[1]; read-out: MIC to Vancomycin in the presence of Aurograb, VISA EMRSA-15, Aurograb 0 μg/ml
  MIC: 8 µg/mL
[1]; read-out: MIC to Vancomycin in the presence of Aurograb, VISA EMRSA-15, Aurograb 60 μg/ml
  MIC: 4 µg/mL
[1]; read-out: MIC to Vancomycin in the presence of Aurograb, VISA EMRSA-15, Aurograb 80 μg/ml
  MIC: 2 µg/mL
[1]; read-out: MIC to Vancomycin in the presence of Aurograb, VISA EMRSA-15, Aurograb 125 μg/ml
  MIC: < 0.125 µg/mL
EMRSA strains; read-out: MIC to vancomycin + 100 μg/ml Aurograb, EMRSA strain 1, + 100 μg/ml Aurograb
  MIC: 0.03 µg/mL
EMRSA strains; read-out: MIC to vancomycin + 100 μg/ml Aurograb, EMRSA strain 2, + 100 μg/ml Aurograb
  MIC: 0.03 µg/mL
EMRSA strains; read-out: MIC to vancomycin + 100 μg/ml Aurograb, EMRSA strain 3, + 100 μg/ml Aurograb
  MIC: 0.03 µg/mL
EMRSA strains; read-out: MIC to vancomycin + 100 μg/ml Aurograb, EMRSA strain 4, + 100 μg/ml Aurograb
  MIC: 0.03 µg/mL
EMRSA strains; read-out: MIC to vancomycin + 100 μg/ml Aurograb, EMRSA strain 5, + 100 μg/ml Aurograb
  MIC: 0.03 µg/mL
EMRSA strains; read-out: MIC to vancomycin + 100 μg/ml Aurograb, EMRSA strain 6, + 100 μg/ml Aurograb
  MIC: 0.0125 µg/mL
EMRSA strains; read-out: MIC to vancomycin + 100 μg/ml Aurograb, EMRSA strain 7, + 100 μg/ml Aurograb
  MIC: 0.03 µg/mL
EMRSA strains; read-out: MIC to vancomycin + 100 μg/ml Aurograb, EMRSA strain 8, + 100 μg/ml Aurograb
  MIC: 0.0125 µg/mL
EMRSA strains; read-out: MIC to vancomycin + 100 μg/ml Aurograb, EMRSA strain 9, + 100 μg/ml Aurograb
  MIC: 0.0125 µg/mL
EMRSA strains; read-out: MIC to vancomycin + 100 μg/ml Aurograb, EMRSA strain 10, + 100 μg/ml Aurograb
  MIC: 0.03 µg/mL
EMRSA strains; read-out: MIC to vancomycin + 100 μg/ml Aurograb, EMRSA strain 11, + 100 μg/ml Aurograb
  MIC: 0.03 µg/mL
EMRSA strains; read-out: MIC to vancomycin + 100 μg/ml Aurograb, EMRSA strain 12, + 100 μg/ml Aurograb
  MIC: 0.03 µg/mL
EMRSA strains; read-out: MIC to vancomycin + 100 μg/ml Aurograb, EMRSA strain 13, + 100 μg/ml Aurograb
  MIC: 0.03 µg/mL
EMRSA strains; read-out: MIC to vancomycin + 100 μg/ml Aurograb, EMRSA strain 14, + 100 μg/ml Aurograb
  MIC: 0.03 µg/mL
EMRSA strains; read-out: MIC to vancomycin + 100 μg/ml Aurograb, EMRSA strain 15, + 100 μg/ml Aurograb
  MIC: 0.03 µg/mL
EMRSA strains; read-out: MIC to vancomycin + 100 μg/ml Aurograb, EMRSA strain 16, + 100 μg/ml Aurograb
  MIC: 0.03 µg/mL
EMRSA strains; read-out: MIC to vancomycin, EMRSA strain 1
  MIC: 0.5 µg/mL
EMRSA strains; read-out: MIC to vancomycin, EMRSA strain 2
  MIC: 0.5 µg/mL
EMRSA strains; read-out: MIC to vancomycin, EMRSA strain 3
  MIC: 0.5 µg/mL
EMRSA strains; read-out: MIC to vancomycin, EMRSA strain 4
  MIC: 0.5 µg/mL
EMRSA strains; read-out: MIC to vancomycin, EMRSA strain 5
  MIC: 0.5 µg/mL
EMRSA strains; read-out: MIC to vancomycin, EMRSA strain 6
  MIC: 0.5 µg/mL
EMRSA strains; read-out: MIC to vancomycin, EMRSA strain 7
  MIC: 0.5 µg/mL
EMRSA strains; read-out: MIC to vancomycin, EMRSA strain 8
  MIC: 0.5 µg/mL
EMRSA strains; read-out: MIC to vancomycin, EMRSA strain 9
  MIC: 0.5 µg/mL
EMRSA strains; read-out: MIC to vancomycin, EMRSA strain 10
  MIC: 0.5 µg/mL
EMRSA strains; read-out: MIC to vancomycin, EMRSA strain 11
  MIC: 0.5 µg/mL
EMRSA strains; read-out: MIC to vancomycin, EMRSA strain 12
  MIC: 0.5 µg/mL
EMRSA strains; read-out: MIC to vancomycin, EMRSA strain 13
  MIC: 0.5 µg/mL
EMRSA strains; read-out: MIC to vancomycin, EMRSA strain 14
  MIC: 0.25 µg/mL
EMRSA strains; read-out: MIC to vancomycin, EMRSA strain 15
  MIC: 0.5 µg/mL
EMRSA strains; read-out: MIC to vancomycin, EMRSA strain 16
  MIC: 0.5 µg/mL
